# Test results: US10946028B2, “Polymer conjugate of sulfoxide derivative-coordinated platinum(II) complex” (priority 2015, dated 2021)
# Values joined by “and” are separate entries in the source; they are usually repeats but may differ in a detail not shown here. Equal values may be shown once. Read-outs that look alike come from different tables or passages of the source.
# Experiments:
# [1] = Body weight change in Antitumor Test 3; type: in vivo; conditions: 18 mg/kg once i.v., body weight on day of initiation = 1
# Text: Human gastric cancer 4-1ST was collected from subcutaneous sites of nude mice, and the tumors were finely cut into blocks each measuring about 3 mm on one side. The tumor blocks thus obtained were transplanted subcutaneously into the dorsal side of nude mice using a trocar. On the 17th day after transplantation, when the average tumor volume reached about 100 to 200 mm^3, various drugs were intravenously administered through the caudal vein. […] Regarding the high amounts of administration of the administered compounds, the maximum tolerable dose (MTD dose) was employed in all cases. After the administration of the various drugs, the major axes (L) and the minor axes (W) of the tumors were measured over time using calipers, and the tumor volumes (L×W×W×0.5) were calculated. The test was carried out using four animals per group in all cases for a non-administered group and various drug-administered groups.
# After the administration, the body weights of the mice were measured over time.
# [2] = test system: Human gastric cancer 4-1ST; test: Antitumor Test 2, human gastric cancer 4-1ST-transplanted mouse; type: in vivo, BALB/cA-nu/nu mice; conditions: 18 mg/kg once i.v.
# Text: (§1) Human gastric cancer 4-1ST was subcultured and maintained subcutaneously in BALB/cA-nu/nu mice (hereinafter, nude mice). Human gastric cancer 4-1ST was purchased from Central Institute for Experimental Animals.
# Human gastric cancer 4-1ST was collected from subcutaneous sites of nude mice, and the tumors were finely cut into blocks each measuring about 3 mm on one side. The tumor blocks thus obtained were transplanted subcutaneously into the dorsal side of nude mice using a trocar. On the 18th day after transplantation, when the average tumor volume reached about 100 to 200 mm^3, various drugs were intravenously administered through the caudal vein. […] As a control drug, 1-OHP was administered once at a dose of 18 mg/kg. […] Regarding Example 3 compound, the dose was less than or equal to the MTD dose; however, the dissolution limit of the compound was administered. After the administration of the various drugs, the major axes (L) and the minor axes (W) of the tumors were measured over time using calipers, and the tumor volumes (L×W×W×0.5) were calculated. The test was carried out using four animals per group in all cases for a non-administered group and various drug-administered groups. For a period starting from the initiation of administration to the 21st day after administration, the T/C (%) values of the various drug-administered groups are presented in Table 4.
# [3] = Maximum tolerable dose (MTD dose) in the antitumor tests; type: in vivo, BALB/cA-nu/nu mice; conditions: administered once intravenously, nude mice
# Experimental: Human gastric cancer 4-1ST was collected from the subcutaneous sites of nude mice, and the tumors were finely cut into blocks each measuring about 3 mm on one side. The tumor blocks thus obtained were transplanted subcutaneously into the dorsal side of nude mice using a trocar. On the 18th day after transplantation, when the average tumor volume reached about 100 to 200 mm^3, various drugs were intravenously administered through the caudal vein. […] As control drugs, 1-OHP was administered once at a dose of 20 mg/kg, and cisplatin was administered once at a dose of 10 mg/kg. […]
# (§2) Human gastric cancer 4-1ST was collected from subcutaneous sites of nude mice, and the tumors were finely cut into blocks each measuring about 3 mm on one side. […] After the administration of the various drugs, the major axes (L) and the minor axes (W) of the tumors were measured over time using calipers, and the tumor volumes (L×W×W×0.5) were calculated. […]
# as §2
# [4] = test system: Human gastric cancer 4-1ST; test: Antitumor Test 3, human gastric cancer 4-1ST-transplanted mouse; type: in vivo, BALB/cA-nu/nu mice
# Text: as §1
# Human gastric cancer 4-1ST was collected from subcutaneous sites of nude mice, and the tumors were finely cut into blocks each measuring about 3 mm on one side. The tumor blocks thus obtained were transplanted subcutaneously into the dorsal side of nude mice using a trocar. On the 17th day after transplantation, when the average tumor volume reached about 100 to 200 mm^3, various drugs were intravenously administered through the caudal vein. […] As a control drug, 1-OHP or cisplatin (CDDP) was administered once at a dose of 18 mg/kg or 10 mg/kg. Regarding the high amounts of administration of the administered compounds, the maximum tolerable dose (MTD dose) was employed in all cases. After the administration of the various drugs, the major axes (L) and the minor axes (W) of the tumors were measured over time using calipers, and the tumor volumes (L×W×W×0.5) were calculated. The test was carried out using four animals per group in all cases for a non-administered group and various drug-administered groups. For a period starting from the initiation of administration to the 21st day after administration, the T/C (%) values of the various drug-administered groups are presented in Table 5.
# [5] = test system: Human gastric cancer 4-1ST; test: Antitumor Test 1, human gastric cancer 4-1ST-transplanted mouse; type: in vivo, BALB/cA-nu/nu mice
# Text: as §1
# Human gastric cancer 4-1ST was collected from the subcutaneous sites of nude mice, and the tumors were finely cut into blocks each measuring about 3 mm on one side. The tumor blocks thus obtained were transplanted subcutaneously into the dorsal side of nude mice using a trocar. On the 18th day after transplantation, when the average tumor volume reached about 100 to 200 mm^3, various drugs were intravenously administered through the caudal vein. […] As control drugs, 1-OHP was administered once at a dose of 20 mg/kg, and cisplatin was administered once at a dose of 10 mg/kg. Regarding the amounts of administration of 1-OHP and cisplatin, and the high amounts of administration of the various Example compounds, the maximum tolerable dose (MTD dose) was employed in all cases.
# After the administration of the various drugs, the major axes (L) and the minor axes (W) of the tumors were measured over time using calipers, and the tumor volumes (L×W×W×0.5) were calculated. The test was carried out using four animals per group in all cases for a non-administered group and various drug-administered groups. For a period starting from the initiation of administration to the 20th day after administration, the relative tumor volume (T/C (%)) of each of the drug-administered groups was calculated by the following formula, based on the relative tumor volume of the non-administered group as 100, as an index of the antitumor effect. T/C (%)=Relative tumor volume of administered group/relative tumor volume of non-administered group×100 Formula: […]
# [6] = test system: DAN-G cells; test: Proliferation inhibition test, concentration/time dependency; type: cell-based, Human
# Experimental: Human pancreatic cancer cell line, DAN-G, was purchased from Asta Medica GmbH, and the cells were proliferated and subcultured in a recommended medium described in the pamphlet.
# For DAN-G cells that had been cultured and proliferated on a 10 cm dish for cell culture, the culture fluid was removed, and the cells were washed once with 5 ml of PBS (phosphate buffered physiological saline). Subsequently, 1 ml of 0.25% trypsin/0.05% EDTA (ethylenediaminetetraacetic acid)/PBS was added to the cells, and the mixture was left to stand for 5 minutes at 37° C. After it was confirmed that the cells had been detached from the dish, 9 ml of medium was added to the dish to disperse the cells, the dispersion was transferred into a 15 ml tube (Corning, Inc.), and the dispersion was centrifuged for 5 minutes at 1,000 rpm. A supernatant was removed, subsequently 10 ml of fresh medium was added to the tube, and the cells were suspended. A portion of the cells was stained with Trypan Blue, and the viable cell count was measured using a hemocytometer. The suspended cells were diluted with medium to a concentration of 2.6×10^4 cells/ml, and the cells were inoculated onto five sheets of 96 well plate (Plates A, B, C, D, and E) at a volume of 190 μl/well (5×10^3 cells/well).
# The cells were then cultured under the conditions of 37° C. and 5% CO2. Three replica wells were provided for each drug concentration.
# A test was performed under five different conditions by changing the drug addition time.
# For Plates A, B, C, D, and E that had been cultured for 72 hours as described above, the medium was removed, subsequently methanol was added to the plates, and the cells were thereby immobilized on the plates. After methanol was removed, a 0.05% Methylene Blue solution was added to the plate, and the cells were stained for 30 minutes. Methylene Blue was removed, any excess stain solution was washed with water, subsequently 3% hydrochloric acid was added to the plate at a volume of 200 μl/well, and thus Methylene Blue was extracted. The plates were left to stand for 2 hours or longer, and the absorbance at 660 nm was measured using a microplate reader (BENCHMARK PLUS, manufactured by Bio-Rad Laboratories, Inc.). Regarding the measured values, the average value of three replicas of a well for each drug concentration was taken. The proliferation inhibition ratio GI(x) % at a drug concentration x was calculated by the following formula from the absorbance values thus measured. GI(x)%=(1−(Ax−B)/(A0−B))×100
structure (smiles),measurement,setting,value
"O=C1[O][Pt]2([NH][C@@H]3CCCC[C@H]3[NH]2)[O]C1=O [l-OHP, Oxaliplatin]",Relative body weight on days after administration,[1]; day 0,1.00
same,Relative body weight on days after administration,[1]; day 4,0.78
same,Relative body weight on days after administration,[1]; day 7,0.83
same,Relative body weight on days after administration,[1]; day 11,0.93
same,Relative body weight on days after administration,[1]; day 14,1.03
same,Relative body weight on days after administration,[1]; day 18,1.09
same,Relative body weight on days after administration,[1]; day 21,1.05
same,T/C (%) on days after each administration,[2]; day 0,100%
same,T/C (%) on days after each administration,[2]; day 3,100%
same,T/C (%) on days after each administration,[2]; day 7,65%
same,T/C (%) on days after each administration,[2]; day 10,58%
same,T/C (%) on days after each administration,[2]; day 14,57%
same,T/C (%) on days after each administration,[2]; day 17,61%
same,T/C (%) on days after each administration,[2]; day 21,60%
same,Maximum tolerable dose (MTD dose),[3]; listed as 1-OHP,20 mg/kg and 18 mg/kg
same,T/C (%) on days after each administration,"[4]; 18 mg/kg once i.v., day 0",100%
same,T/C (%) on days after each administration,"[4]; 18 mg/kg once i.v., day 4",84%
same,T/C (%) on days after each administration,"[4]; 18 mg/kg once i.v., day 7",52%
same,T/C (%) on days after each administration,"[4]; 18 mg/kg once i.v., day 11",50%
same,T/C (%) on days after each administration,"[4]; 18 mg/kg once i.v., day 14",50%
same,T/C (%) on days after each administration,"[4]; 18 mg/kg once i.v., day 18",60%
same,T/C (%) on days after each administration,"[4]; 18 mg/kg once i.v., day 21",57%
same,T/C (%) on days after each administration,"[5]; 20 mg/kg once i.v., day 0",100%
same,T/C (%) on days after each administration,"[5]; 20 mg/kg once i.v., day 3",96%
same,T/C (%) on days after each administration,"[5]; 20 mg/kg once i.v., day 6",53%
same,T/C (%) on days after each administration,"[5]; 20 mg/kg once i.v., day 9",46%
same,T/C (%) on days after each administration,"[5]; 20 mg/kg once i.v., day 13",46%
same,T/C (%) on days after each administration,"[5]; 20 mg/kg once i.v., day 16",51%
same,T/C (%) on days after each administration,"[5]; 20 mg/kg once i.v., day 20",50%
same,IC50,"[6]; drug exposure 6 hours, 72 hours total culture, concentration in terms of DACH-platin, read-out: IC50, 6 hours",9 µM
same,IC50,"[6]; drug exposure 24 hours, 72 hours total culture, concentration in terms of DACH-platin, read-out: IC50, 24 hours",1.8 µM
same,IC50,"[6]; drug exposure 48 hours, 72 hours total culture, concentration in terms of DACH-platin, read-out: IC50, 48 hours",0.9 µM
same,IC50,"[6]; drug exposure 72 hours, concentration in terms of DACH-platin, read-out: IC50, 72 hours",0.9 µM
same,IC50 (6 hours)/IC50 (72 hours),[6]; ratio of IC50 values,10.0
same,IC50,"[6]; read-out: IC50, 2 hour, drug exposure 2 hours, 72 hours total culture, concentration in terms of DACH-platin",44.1 µM
"N.N.[Cl][Pt][Cl] [Cisplatin, cisplatin]",Maximum tolerable dose (MTD dose),[3],10 mg/kg
same,T/C (%) on days after each administration,"[4]; 10 mg/kg once i.v., day 0",100%
same,T/C (%) on days after each administration,"[4]; 10 mg/kg once i.v., day 4",77%
same,T/C (%) on days after each administration,"[4]; 10 mg/kg once i.v., day 7",43%
same,T/C (%) on days after each administration,"[4]; 10 mg/kg once i.v., day 11",32%
same,T/C (%) on days after each administration,"[4]; 10 mg/kg once i.v., day 14",36%
same,T/C (%) on days after each administration,"[4]; 10 mg/kg once i.v., day 18",37%
same,T/C (%) on days after each administration,"[4]; 10 mg/kg once i.v., day 21",42%
same,T/C (%) on days after each administration,"[5]; 10 mg/kg once i.v., day 0",100%
same,T/C (%) on days after each administration,"[5]; 10 mg/kg once i.v., day 3",91%
same,T/C (%) on days after each administration,"[5]; 10 mg/kg once i.v., day 6",49%
same,T/C (%) on days after each administration,"[5]; 10 mg/kg once i.v., day 9",32%
same,T/C (%) on days after each administration,"[5]; 10 mg/kg once i.v., day 13",31%
same,T/C (%) on days after each administration,"[5]; 10 mg/kg once i.v., day 16",35%
same,T/C (%) on days after each administration,"[5]; 10 mg/kg once i.v., day 20",36%
